Measured values published in US20260250318A1, “COMPOSITIONS AND METHODS FOR CROSSING THE BLOOD BRAIN BARRIER” (VOYAGER THERAPEUTICS, INC., priority 2022, published 2026).

System: brains, heart, liver, muscle, and DRG of the NHPs
Test: Maturation of TTM-001 and TTM-002 capsids, NGS enrichment in NHP tissues
Type: in vivo
Excerpt: This Example describes maturation of the AAV9 capsid variants, TTM-001 (SEQ ID NO: 981 (amino acid) and 983 (DNA), comprising SEQ ID NO: 941 (encoded by SEQ ID NO: 942)) and TTM-002 (SEQ ID NO: 982 (amino acid) and 984 (DNA), comprising SEQ ID NO: […] (encoded by SEQ ID NO: 944)) in NHPs to further enhance their transduction and biodistribution in the central nervous system as well as other tissues, and evolve the AAV capsid variants to provide further cross-species compatibility. Two approaches were used to mature the TTM-001 and TTM-002 capsid sequences in order to randomize and mutate within and around the peptide insert comprised within loop IV of the capsid variant. […] In the first maturation approach, sets of three contiguous amino acids were randomized across the mutagenesis region in the TTM-001 and TTM-002 sequences, which spanned from position 450 to position 466, numbered according to SEQ ID NO: 981 and 982. In the second maturation approach, mutagenic primers were used to introduce point mutations at a low frequency, scattered across the mutagenesis region in the TTM-001 and TTM-002 sequences ranging from position 449 to position 466, numbered according to SEQ ID NO: 981 and 982. AAV capsid variants arising from each maturation approach for TTM-001 and TTM-002 were pooled together, for subsequent testing and characterization in NHPs.
The library of pooled matured AAV capsid variants generated using the first maturation approach and the second maturation approach for the TTM-001 and TTM-002 AAV capsid variants were injected into two NHPs. […] Following RNA recovery and RT-PCR amplification, a systematic NGS enrichment analysis was performed to calculate the fold enrichment ratio relative to an AAV9 control, and the peptides comprised within the variants were identified.
Following the RNA recovery and NGS analysis from the second maturation approach, approximately 680,000 capsid variants were identified. The 680,000 matured capsid variants were then filtered based on samples with a raw virus count greater than 10 and a coefficient of variance (CV) of less than 1, which was calculated for each peptide across the brain samples taken from the two NHPs. […] Using this filtering criteria, this led to approximately 64,000 matured capsid variants.

[1] = NHP DRG, NGS, relative to AAV9 control
[2] = NHP brain, NGS, relative to AAV9 control
[3] = NHP heart, NGS, relative to AAV9 control
[4] = NHP liver DNA, NGS, relative to AAV9 control
[5] = NHP liver RNA, NGS, TTM-001 and TTM-002 matured AAV capsid variants, relative to AAV9 control
[6] = NHP muscle, NGS, relative to AAV9 control

Sequence | Fold Enrichment relative to AAV9, DRG (NHP) [1] [fold] | Fold Enrichment relative to AAV9, Brain (NHP) [2] [fold] | Fold Enrichment relative to AAV9, Heart (NHP) [3] [fold] | Fold Enrichment relative to AAV9, Liver DNA (NHP) [4] [fold] | Fold Enrichment relative to AAV9, Liver RNA (NHP) [5] [fold] | Fold Enrichment relative to AAV9, Muscle (NHP) [6] [fold] | Fold Enrichment relative to AAV9, DRG (NHP) (NGS fold-enrichment, DRG, NHP, relative to AAV9) [fold] | Fold Enrichment relative to AAV9, Brain (NHP) (NGS fold-enrichment, brain, NHP, relative to AAV9) [fold] | Fold Enrichment relative to AAV9, Heart (NHP) (NGS fold-enrichment, heart, NHP, relative to AAV9) [fold] | Fold Enrichment relative to AAV9, Liver DNA (NHP) (NGS fold-enrichment, liver DNA, NHP, relative to AAV9) [fold] | Fold Enrichment relative to AAV9, Liver RNA (NHP) (NGS fold-enrichment, liver RNA, NHP, relative to AAV9) [fold] | Fold Enrichment relative to AAV9, Muscle (NHP) (NGS fold-enrichment, muscle, NHP, relative to AAV9) [fold]
KFFHGSGSPHSKAQNQQT | 0.000 | 0.000 | 0.000 | 0.897 | 15.412 | 0.000 |  |  |  |  |  | 
KKHLGSGSPHSKAQNQQT | 0.000 | 0.000 | 0.000 | 0.658 | 18.521 | 0.000 |  |  |  |  |  | 
KPARGSGSPHSKAQNQQT | 0.000 | 0.000 | 0.000 | 1.391 | 16.793 | 0.000 |  |  |  |  |  | 
KPFLGSGSPHSKAQNQQT |  |  |  |  |  |  | 0.000 | 0.000 | 0.000 | 1.328 | 10.318 | 0.000
KPRFGSGSPHSKAQNQQT | 0.000 | 0.000 | 0.000 | 0.657 | 27.203 | 0.000 |  |  |  |  |  | 
KPRWGSGSPHSKAQNQQT | 0.000 | 0.000 | 375.537 | 0.386 | 51.637 | 0.000 |  |  |  |  |  | 
KRFSGSGSPHSKAQNQQT | 0.000 | 0.000 | 0.000 | 1.358 | 11.024 | 0.000 |  |  |  |  |  | 
KRSYGSGSPHSKAQNQQT | 0.000 | 0.000 | 0.000 | 2.841 | 22.474 | 0.000 |  |  |  |  |  | 
KRYNGSGSPHSKAQNQQT | 0.000 | 0.000 | 0.000 | 0.806 | 15.160 | 0.000 |  |  |  |  |  | 
KSRRGSGSPHSKAQNQQT | 0.000 | 0.000 | 0.000 | 1.446 | 16.131 | 0.000 |  |  |  |  |  | 
KTICGRGSPHSKAQNQQT | 0.000 | 0.000 | 0.000 | 2.171 | 18.923 | 0.000 |  |  |  |  |  | 
KTIFDCGSPHSKAQNQQT | 0.000 | 0.000 | 0.000 | 1.602 | 27.844 | 0.000 |  |  |  |  |  | 
KTIKRYGSPHSKAQNQQT | 0.000 | 0.000 | 0.000 | 2.022 | 11.461 | 0.000 |  |  |  |  |  | 
KTINALRSPHSKAQNQQT | 0.000 | 0.000 | 0.000 | 1.655 | 20.053 | 0.000 |  |  |  |  |  | 
KTINCRTSPHSKAQNQQT | 0.000 | 0.000 | 0.000 | 1.117 | 28.301 | 0.000 |  |  |  |  |  | 
KTINFTRSPHSKAQNQQT | 0.000 | 0.000 | 0.000 | 3.751 | 14.908 | 0.000 |  |  |  |  |  | 
KTINGAYSPHRKAQNQQT | 0.000 | 0.000 | 0.000 | 1.283 | 40.969 | 0.000 |  |  |  |  |  | 
KTINGLDSPHRSRQNQQT | 0.000 | 0.000 | 0.000 | 0.321 | 26.403 | 0.000 |  |  |  |  |  | 
KTINGLVSPHRKAQNQQT | 0.000 | 0.000 | 0.000 | 2.739 | 23.417 | 0.000 |  |  |  |  |  | 
KTINGPWSPHRKAQNQQT | 0.000 | 0.000 | 0.000 | 0.434 | 12.103 | 0.000 |  |  |  |  |  | 
KTINGRPSPHGKAQNQQT | 0.000 | 0.000 | 0.000 | 0.705 | 14.442 | 0.000 |  |  |  |  |  | 
KTINGRRSPHGKAQNQQT | 0.000 | 0.000 | 0.000 | 3.259 | 37.728 | 0.000 |  |  |  |  |  | 
KTINGRRSPHMKAQNQQT | 0.000 | 0.000 | 0.000 | 3.510 | 12.136 | 0.000 |  |  |  |  |  | 
KTINGSGSPHCALQNQQT | 0.000 | 0.000 | 0.000 | 3.867 | 11.404 | 0.000 |  |  |  |  |  | 
KTINGSGSPHCPAQNQQT | 0.000 | 0.000 | 0.000 | 1.409 | 13.359 | 0.000 |  |  |  |  |  | 
